Reference: the C3SDB collision cross section collection

Conditions: [M+H]+; instrument: TW; Major Mix IMS/Tof Calibration Kit (Waters)

Row | collision cross section (N2) [Å²] | SMILES
1 | 165.3 | COc1ncnc(NS(=O)(=O)c2ccc(N)cc2)c1OC [Sulfadoxine]
2 | 199.4 | OCCN1CCN(CC/C=C2\c3ccccc3Sc3ccc(C(F)(F)F)cc32)CC1 [Flupentixol]
3 | 174 | CCOc1ccccc1O[C@H](c1ccccc1)[C@H]1CNCCO1 [Reboxetine]
4 | 152.1 | Cc1cc(C(=O)NNCc2ccccc2)no1 [Isocarboxazid]
5 | 160.6 | CN(C)CCc1c[nH]c2ccc(C[C@H]3COC(=O)N3)cc12 [Zolmitriptan]
6 | 164.2 | CNCCCC1(C2=CC=CC=C32)CC[C@H]3C4=CC=CC=C14 [Maprotiline]
7 | 197.1 | CC/C(=C(\c1ccccc1)c1ccc(OCCN(C)C)cc1)c1ccccc1 [Tamoxifen]
8 | 212.1 | COC(=O)C1=C(C)NC(C)=C(C(=O)OCCN(C)Cc2ccccc2)C1c1cccc([N+](=O)[O-])c1 (configuration not stated) [Nicardipine]
9 | 172.9 | CNC[C@@H](C)CN1c2ccccc2S(=O)c2ccc(OC)cc21 (some centres not stated) [Levomepromazine-M N-desmethyl sulfoxide]
10 | 132.2 | CC(=O)Nc1ccc(O)cc1 [Paracetamol]
11 | 159.1 | CC(C)NCC(O)COc1cccc2[nH]ccc12 (configuration not stated) [Pindolol]
12 | 163 | CCCCNC(=O)NS(=O)(=O)c1ccc(C)cc1 [Tolbutamide]
13 | 150.8 | Nc1ccc(S(=O)(=O)Nc2ccccn2)cc1 [Sulfapyridine]
14 | 163.5 | CC1CCN(CCCC(=O)c2ccc(F)cc2)CC1 [Melperone]
15 | 162.5 | O=C(NCCN1CCOCC1)c1ccc(Cl)cc1 [Moclobemide]
16 | 146.6 | C[C@]12C[C@@H]3C[C@](C)(C1)C[C@@](N)(C3)C2 [Memantine]
17 | 211.5 | Fc1ccc(C(c2ccc(F)cc2)N2CCN(C/C=C/c3ccccc3)CC2)cc1 [Flunarizine]
18 | 196.2 | CN(Cc1cnc2nc(N)nc(N)c2n1)c1ccc(C(=O)N[C@@H](CCC(=O)O)C(=O)O)cc1 [Methotrexate]
19 | 172.7 | COCCc1ccc(OCC(O)CNC(C)C)cc1 (configuration not stated) [Metoprolol]
20 | 175.4 | CN1CCC(=C2c3ccccc3CCc3sccc32)CC1 [Pizotifen]
21 | 163.8 | CCCN(CCC)CCc1cccc2c1CC(=O)N2 [Ropinirole]
22 | 203.5 | CCOC(=O)[C@H](CCc1ccccc1)N[C@@H](C)C(=O)N1[C@H](C(=O)O)C[C@H]2CCCC[C@@H]21 [Trandolapril]
23 | 153.4 | COc1ccc2[nH]cc(CCNC(C)=O)c2c1 [Melatonin]
24 | 159.1 | Cc1cccc(C)c1NC(=O)C1CCCCN1C (configuration not stated) [Mepivacaine]

The remaining lines, values behind:

Row | SMILES | collision cross section (N2) [Å²]
25 | COc1ccc2c3c1O[C@H]1[C@@H](O)C=C[C@H]4[C@@H](C2)NCC[C@@]341 [Norcodeine] | 166.1
26 | CN1[C@@H]2CC[C@H]1C[C@@H](OC(=O)C(CO)c1ccccc1)C2 (some centres not stated) [Atropine] | 171.5
27 | CC(C)NCC(O)COc1ccc(CC(N)=O)cc1 (configuration not stated) [Atenolol] | 159.5
28 | COc1ccc2c3c1O[C@H]1C(OC(C)=O)=CC[C@H]4[C@@H](C2)N(C)CC[C@]314 [Thebacon] | 178.2
29 | CCCN1C[C@H](CSC)C[C@@H]2c3cccc4[nH]cc(c34)C[C@H]21 [Pergolide] | 177.9
30 | COc1ccc(C(CN(C)C)C2(O)CCCCC2)cc1 (configuration not stated) [Venlafaxine] | 171.6
31 | NC(=O)N1c2ccccc2C=Cc2ccccc21 [Carbamazepine] | 150.3
32 | CN1CCN(C2=Nc3cc(Cl)ccc3Nc3ccccc32)CC1 [Clozapine] | 178.8
33 | CC(C)(C)NCC(O)c1cc(Cl)c(N)c(Cl)c1 (configuration not stated) [Clenbuterol] | 165.6
34 | O=C1CN=C(c2ccccc2Cl)c2cc([N+](=O)[O-])ccc2N1 [Clonazepam] | 168.2
35 | OCCN1CCN(C(c2ccccc2)c2ccc(Cl)cc2)CC1 (configuration not stated) [Cetirizine-M O-desalkyl] | 186.2
36 | Cc1nn(C)c2c1C(c1ccccc1F)=NCC(=O)N2C [Zolazepam] | 162.3
37 | C[C@]12CCC(=O)C=C1CC[C@@H]1[C@@H]2CC[C@@]2(C)[C@H]1CC[C@]2(C)O [Methyltestosterone] | 176
38 | CCN(C(C)=O)c1cccc(-c2ccnc3c(C#N)cnn23)c1 [Zaleplon] | 173.5
39 | Cc1ccc(-c2nc3ccc(C(=O)O)cn3c2CC(=O)N(C)C)cc1 [Zolpidem-M 2] | 181.4
40 | CCNC(C)C(=O)c1ccccc1 (configuration not stated) [Ethcathinone] | 139.2
41 | Cc1ccc(-c2nc3ccc(C)cn3c2CC(=O)N(C)C)cc1 [Zolpidem] | 177.2
42 | CCOC(=O)[C@H]1[C@@H](OC(=O)c2ccccc2)C[C@@H]2CC[C@H]1N2C [Cocaine-M Cocaethylene] | 173.5
43 | NC(=O)C(CCN1CCC(O)(c2ccc(Cl)cc2)CC1)(c1ccccc1)c1ccccc1 [Loperamid-M didesmethyl] | 211.9
44 | CCCC(=O)Nc1ccc(OCC(O)CNC(C)C)c(C(C)=O)c1 (configuration not stated) [Acebutolol] | 190.2
45 | COC(=O)[C@@H]1CC2=CC(=O)CC[C@]2(C)[C@@]23O[C@@H]2C[C@@]2(C)[C@@H](CC[C@@]24CCC(=O)O4)[C@H]13 [Eplerenone] | 197.6
46 | Fc1ccccc1C1=NCC(=S)N(CC(F)(F)F)c2ccc(Cl)cc21 [Quazepam] | 174.9
47 | O=C1CC2(CCCC2)CC(=O)N1CCCCN1CCN(c2ncccn2)CC1 [Buspirone] | 199.3
48 | CCN(CC)CCN1C(=O)CN=C(c2ccccc2F)c2cc(Cl)ccc21 [Flurazepam] | 185.3
49 | OCCN(CCO)c1nc(N2CCCCC2)c2nc(N(CCO)CCO)nc(N3CCCCC3)c2n1 [Dipyridamole] | 227.5
50 | COc1ccccc1OCCNCC(O)COc1cccc2[nH]c3ccccc3c12 (configuration not stated) [Carvedilol] | 190
51 | CN1C(=O)CN=C(c2ccccc2F)c2cc([N+](=O)[O-])ccc21 [Flunitrazepam] | 168.6
52 | Cc1nnc2n1-c1ccc(Cl)cc1C(c1ccccc1)=NC2 [Alprazolam] | 171.5
53 | CCOC(=O)c1ccc(N)cc1 [Benzocaine] | 148.2
54 | CCOC(=O)C1(c2ccccc2)CCN(C)CC1 [Pethidine] | 158.5

Conditions: [M+HCOO]-; instrument: DT; single field, calibrated with Agilent tune mix (Agilent)

Row | collision cross section (N2) [Å²] | SMILES
55 | 274.4 | CCCCCCCCCCCCC=CC[C@@H](O)[C@H](CO)NC(=O)CC=CCCCCCCCCCCCCCCCCCCCC [Cer(42:2)]

Same assay, conditions: [M+H]+; instrument: DT; single field, calibrated with Agilent tune mix (Agilent)

Row | collision cross section (N2) [Å²] | SMILES
56 | 256.3 | CCCCCCCCCCCCC=CC[C@@H](O)[C@H](CO)NC(=O)CCCCCCCCCCCCCCCC [Cer(35:1)]
57 | 255.4 | CCCCCCCCCCCCC=CC[C@@H](O)[C@H](CO)NC(=O)CC=CCCCCCCCCCCCCCC [Cer(36:2)]
58 | 228.4 | CCCCCC/C=C\CCCCCCCCC(=O)OC[C@@H](O)COP(=O)([O-])OCC[N+](C)(C)C [LPC(17:1)]
59 | 279.3 | CCCCCCCCCCCCC=CC[C@@H](O)[C@H](CO)NC(=O)CCCCCCCCCCCCCCCCCCCCCCC [Cer(42:1)]
60 | 269 | CCCCCCCCCCCCC=CC[C@@H](O)[C@H](CO)NC(=O)CCCCCCCCCCCCCCCCCCCC [Cer(39:1)]

Row | SMILES | collision cross section (N2) [Å²]
61 | CCCCCCCCCCCCCCCCCCCC(=O)OC[C@@H](O)COP(=O)([O-])OCC[N+](C)(C)C [LPC(20:0)] | 243.9

Same assay, conditions: [M+NH4]+; instrument: DT; single field, calibrated with Agilent tune mix (Agilent)

Row | collision cross section (N2) [Å²] | SMILES
62 | 322.1 | CCCCC/C=C\C/C=C\C/C=C\C/C=C\CCCCCC(=O)OC[C@@H](COC(=O)CCCCCCCCCCCC)OC(=O)CCCCCCC/C=C\CCCCCCCCC [TG(54:5)]
63 | 346.8 | CCCCCCCC/C=C\CCCCCCCC(=O)OC[C@H](COC(=O)CCCCCCCCC/C=C\CCCCCCCCCC)OC(=O)CCCCCCCCC/C=C\CCCCCCCCCC [TG(62:3)]
64 | 343.6 | CCCCC/C=C\C/C=C\C/C=C\C/C=C\CCCCCC(=O)OC[C@@H](COC(=O)CCCCCCC/C=C\CCCCCCCC)OC(=O)CCCCCCCCCCC/C=C\C/C=C\CCCCC [TG(62:7)]
65 | 334.1 | CC/C=C\C/C=C\C/C=C\C/C=C\C/C=C\CCCCCC(=O)OC[C@@H](COC(=O)CCCCCCC/C=C\C/C=C\CCCCC)OC(=O)CCCCCC/C=C\C/C=C\C/C=C\CCCCC [TG(60:10)]

Same assay, conditions: [M+Na]+; instrument: DT; single field, calibrated with Agilent tune mix (Agilent)

Row | collision cross section (N2) [Å²] | SMILES
66 | 278.8 | CCCCCCCCCCCCC=CC[C@@H](O)[C@H](CO)NC(=O)CC=CCCCCCCCCCCCCCCCCCCCC [Cer(42:2)]

Same assay, conditions: [M-H]-; instrument: DT; single field, calibrated with Agilent tune mix (Agilent)

Row | collision cross section (N2) [Å²] | SMILES
67 | 295 | CCCCC/C=C\C/C=C\C/C=C\C/C=C\CCCCCC(=O)O[C@H](COC(=O)CCCCCCCCCCCCCCCC)COP(=O)(O)O[C@H]1C(O)C(O)C(O)[C@@H](O)C1O (some centres not stated) [PI(39:4)]
68 | 279.2 | CCCCC/C=C\C/C=C\CCCCCCCC(=O)O[C@H](COC(=O)CCCCCCCCC/C=C\CCCCCCCC)COP(=O)(O)OC[C@@H](O)CO [PG(38:3)]

Second part, the molecule before the results:

Row | SMILES | collision cross section (N2) [Å²]
69 | CCCCCCCCCCCCC=CC[C@@H](O)[C@H](CO)NC(=O)CCCCCCCCCCCCCCCCCCCCCCC [Cer(42:1)] | 267.7
70 | CCCCCCCCCCCCC=CC[C@@H](O)[C@H](CO)NC(=O)CC=CCCCCCCCCCCCCCCCCCCCC [Cer(42:2)] | 266.1

Conditions: [M+H]+; instrument: DT; stepped-field

Row | SMILES | collision cross section (N2) [Å²]
71 | CCCCCCCCCCCCCCCCCCCC(=O)OC[C@@H](O)COP(=O)([O-])OCC[N+](C)(C)C [LPC(20:0)] | 248.6

Same assay, conditions: [M+Na]+; instrument: DT; stepped-field

Row | SMILES | collision cross section (N2) [Å²]
72 | CCCCCCCCCCCCCCCCCCCC(=O)OC[C@@H](O)COP(=O)([O-])OCC[N+](C)(C)C [LPC(20:0)] | 251.13
